{"source": "PubChem BioAssay AID2060888", "about": "(Molecular Pharmacology Branch, DTP, NCI, 2025);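 also: viability read after seven days of drug exposure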;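 as to viability, T/C: 100% = DMSO vehicle control viability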", "tested_on": "695427-040-R-J1-PDC complex spheroid viability", "experiment": "Anticancer human tumor 695427-040-R-J1-PDC patient-derived colon adenocarcinoma cell line growth inhibition [RAS]", "details": "for IC50: curve of first compound; for viability, T/C: stronger effect = lower value", "in_short": "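Tumour cells grown as complex spheroids with HUVEC endothelial cells and mesenchymal stem cells, treated with RAS pathway inhibitor combinations. Each agent spans half-log steps from near clinical Cmax, or 10 microM where Cmax is unknown.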", "key": {"[1]": {"details": "second compound 0.0316 µM, first compound 0.0316 µM"}, "[2]": {"details": "second compound 0.0316 µM, first compound 0.1 µM"}, "[3]": {"details": "second compound 0.0316 µM, first compound 0.316 µM"}, "[4]": {"details": "second compound 0.0316 µM, first compound 1 µM"}, "[5]": {"details": "second compound 0.1 µM, first compound 0.0316 µM"}, "[6]": {"details": "second compound 0.1 µM, first compound 0.1 µM"}, "[7]": {"details": "second compound 0.1 µM, first compound 0.316 µM"}, "[8]": {"details": "second compound 0.1 µM, first compound 1 µM"}, "[9]": {"details": "second compound 0.316 µM, first compound 0.0316 µM"}, "[10]": {"details": "second compound 0.316 µM, first compound 0.1 µM"}, "[11]": {"details": "second compound 0.316 µM, first compound 0.316 µM"}, "[12]": {"details": "second compound 0.316 µM, first compound 1 µM"}, "[13]": {"details": "second compound 1 µM, first compound 0.0316 µM"}, "[14]": {"details": "second compound 1 µM, first compound 0.1 µM"}, "[15]": {"details": "second compound 1 µM, first compound 0.316 µM"}, "[16]": {"details": "second compound 1 µM, first compound 1 µM"}}, "data": [{"smiles": "NC1c2ccccc2OC12CCN(c1cnc3c(N4CCCc5ncccc54)n[nH]c3n1)CC2", "note": "(centres undefined) + C#Cc1c(F)ccc2cc(O)cc(-c3ncc4c(N5CC6CCC(C5)N6)nc(OCC56CCCN5CC(F)C6)nc4c3F)c12", "values": [{"measurement": "IC50", "setting": "second compound 0.0316 µM", "result": 1180, "unit": "nM"}, {"measurement": "IC50", "setting": "second compound 0.1 µM", "result": 583, "unit": "nM"}, {"measurement": "IC50", "setting": "second compound 0.316 µM", "result": 141, "unit": "nM"}, {"measurement": "IC50", "setting": "second compound 1 µM", "result": 50.8, "unit": "nM"}, {"measurement": "IC50", "setting": "second compound 3.16 µM", "result": "< 31.6", "unit": "nM"}, {"measurement": "IC50", "setting": "second compound 10 µM", "result": "< 31.6", "unit": "nM"}, {"measurement": "viability, T/C", "setting": "[1]", "result": 69.6, "unit": "%"}, {"measurement": "viability, T/C", "setting": "[2]", "result": 65.6, "unit": "%"}, {"measurement": "viability, T/C", "setting": "[3]", "result": 57.4, "unit": "%"}, {"measurement": "viability, T/C", "setting": "[4]", "result": 50, "unit": "%"}, {"measurement": "viability, T/C", "setting": "second compound 0.0316 µM, first compound 3.16 µM", "result": 45.2, "unit": "%"}, {"measurement": "viability, T/C", "setting": "second compound 0.0316 µM, first compound 10 µM", "result": 33.6, "unit": "%"}, {"measurement": "viability, T/C", "setting": "[5]", "result": 69, "unit": "%"}, {"measurement": "viability, T/C", "setting": "[6]", "result": 61.8, "unit": "%"}, {"measurement": "viability, T/C", "setting": "[7]", "result": 55.9, "unit": "%"}, {"measurement": "viability, T/C", "setting": "[8]", "result": 45.1, "unit": "%"}, {"measurement": "viability, T/C", "setting": "second compound 0.1 µM, first compound 3.16 µM", "result": 34.9, "unit": "%"}, {"measurement": "viability, T/C", "setting": "second compound 0.1 µM, first compound 10 µM", "result": 23.5, "unit": "%"}, {"measurement": "viability, T/C", "setting": "[9]", "result": 66.8, "unit": "%"}, {"measurement": "viability, T/C", "setting": "[10]", "result": 52.1, "unit": "%"}, {"measurement": "viability, T/C", "setting": "[11]", "result": 40.8, "unit": "%"}, {"measurement": "viability, T/C", "setting": "[12]", "result": 31.9, "unit": "%"}, {"measurement": "viability, T/C", "setting": "second compound 0.316 µM, first compound 3.16 µM", "result": 25.5, "unit": "%"}, {"measurement": "viability, T/C", "setting": "second compound 0.316 µM, first compound 10 µM", "result": 12.8, "unit": "%"}, {"measurement": "viability, T/C", "setting": "[13]", "result": 55.8, "unit": "%"}, {"measurement": "viability, T/C", "setting": "[14]", "result": 40.9, "unit": "%"}, {"measurement": "viability, T/C", "setting": "[15]", "result": 33.6, "unit": "%"}, {"measurement": "viability, T/C", "setting": "[16]", "result": 25.7, "unit": "%"}, {"measurement": "viability, T/C", "setting": "second compound 1 µM, first compound 3.16 µM", "result": 15.8, "unit": "%"}, {"measurement": "viability, T/C", "setting": "second compound 1 µM, first compound 10 µM", "result": 8.19, "unit": "%"}, {"measurement": "viability, T/C", "setting": "second compound 3.16 µM, first compound 0.0316 µM", "result": 39.6, "unit": "%"}, {"measurement": "viability, T/C", "setting": "second compound 3.16 µM, first compound 0.1 µM", "result": 27.4, "unit": "%"}, {"measurement": "viability, T/C", "setting": "second compound 3.16 µM, first compound 0.316 µM", "result": 23.4, "unit": "%"}, {"measurement": "viability, T/C", "setting": "second compound 3.16 µM, first compound 1 µM", "result": 15.9, "unit": "%"}, {"measurement": "viability, T/C", "setting": "second compound 3.16 µM, first compound 3.16 µM", "result": 12.2, "unit": "%"}, {"measurement": "viability, T/C", "setting": "second compound 3.16 µM, first compound 10 µM", "result": 5.36, "unit": "%"}, {"measurement": "viability, T/C", "setting": "second compound 10 µM, first compound 0.0316 µM", "result": 23.9, "unit": "%"}, {"measurement": "viability, T/C", "setting": "second compound 10 µM, first compound 0.1 µM", "result": 18.9, "unit": "%"}, {"measurement": "viability, T/C", "setting": "second compound 10 µM, first compound 0.316 µM", "result": 10.8, "unit": "%"}, {"measurement": "viability, T/C", "setting": "second compound 10 µM, first compound 1 µM", "result": 7.6, "unit": "%"}, {"measurement": "viability, T/C", "setting": "second compound 10 µM, first compound 3.16 µM", "result": 4.71, "unit": "%"}, {"measurement": "viability, T/C", "setting": "second compound 10 µM, first compound 10 µM", "result": 1.43, "unit": "%"}]}, {"smiles": "C=CC(=O)Nc1cc(Nc2nccc(-c3cn(C)c4ccccc34)n2)c(OC)cc1N(C)CCN(C)C", "note": "+ C=CC(=O)N1CCN(c2nc(OCC3CCCN3C)nc3c(F)c(-c4nc(N)cc(C)c4C(F)(F)F)c(Cl)cc23)C(C)C1", "values": [{"measurement": "IC50", "setting": "second compound 0.00316 µM", "result": 406, "unit": "nM"}, {"measurement": "IC50", "setting": "second compound 0.01 µM", "result": 500, "unit": "nM"}, {"measurement": "IC50", "setting": "second compound 0.0316 µM", "result": 403, "unit": "nM"}, {"measurement": "IC50", "setting": "second compound 0.1 µM", "result": 429, "unit": "nM"}, {"measurement": "IC50", "setting": "second compound 0.316 µM", "result": 457, "unit": "nM"}, {"measurement": "IC50", "setting": "second compound 1 µM", "result": 429, "unit": "nM"}, {"measurement": "viability, T/C", "setting": "second compound 0.00316 µM, first compound 0.00316 µM", "result": 96.5, "unit": "%"}, {"measurement": "viability, T/C", "setting": "second compound 0.00316 µM, first compound 0.01 µM", "result": 94.1, "unit": "%"}, {"measurement": "viability, T/C", "setting": "second compound 0.00316 µM, first compound 0.0316 µM", "result": 86.2, "unit": "%"}, {"measurement": "viability, T/C", "setting": "second compound 0.00316 µM, first compound 0.1 µM", "result": 76.5, "unit": "%"}, {"measurement": "viability, T/C", "setting": "second compound 0.00316 µM, first compound 0.316 µM", "result": 54.6, "unit": "%"}, {"measurement": "viability, T/C", "setting": "second compound 0.00316 µM, first compound 1 µM", "result": 31.4, "unit": "%"}, {"measurement": "viability, T/C", "setting": "second compound 0.01 µM, first compound 0.00316 µM", "result": 102, "unit": "%"}, {"measurement": "viability, T/C", "setting": "second compound 0.01 µM, first compound 0.01 µM", "result": 94.5, "unit": "%"}, {"measurement": "viability, T/C", "setting": "second compound 0.01 µM, first compound 0.0316 µM", "result": 83.7, "unit": "%"}, {"measurement": "viability, T/C", "setting": "second compound 0.01 µM, first compound 0.1 µM", "result": 72.2, "unit": "%"}, {"measurement": "viability, T/C", "setting": "second compound 0.01 µM, first compound 0.316 µM", "result": 57.5, "unit": "%"}, {"measurement": "viability, T/C", "setting": "second compound 0.01 µM, first compound 1 µM", "result": 39.2, "unit": "%"}, {"measurement": "viability, T/C", "setting": "second compound 0.0316 µM, first compound 0.00316 µM", "result": 112, "unit": "%"}, {"measurement": "viability, T/C", "setting": "second compound 0.0316 µM, first compound 0.01 µM", "result": 99.1, "unit": "%"}, {"measurement": "viability, T/C", "setting": "[1]", "result": 83.8, "unit": "%"}, {"measurement": "viability, T/C", "setting": "[2]", "result": 71, "unit": "%"}, {"measurement": "viability, T/C", "setting": "[3]", "result": 58.2, "unit": "%"}, {"measurement": "viability, T/C", "setting": "[4]", "result": 32.7, "unit": "%"}, {"measurement": "viability, T/C", "setting": "second compound 0.1 µM, first compound 0.00316 µM", "result": 94.7, "unit": "%"}, {"measurement": "viability, T/C", "setting": "second compound 0.1 µM, first compound 0.01 µM", "result": 100, "unit": "%"}, {"measurement": "viability, T/C", "setting": "[5]", "result": 88, "unit": "%"}, {"measurement": "viability, T/C", "setting": "[6]", "result": 76.4, "unit": "%"}, {"measurement": "viability, T/C", "setting": "[7]", "result": 56.7, "unit": "%"}, {"measurement": "viability, T/C", "setting": "[8]", "result": 33, "unit": "%"}, {"measurement": "viability, T/C", "setting": "second compound 0.316 µM, first compound 0.00316 µM", "result": 105, "unit": "%"}, {"measurement": "viability, T/C", "setting": "second compound 0.316 µM, first compound 0.01 µM", "result": 94.7, "unit": "%"}, {"measurement": "viability, T/C", "setting": "[9]", "result": 84.6, "unit": "%"}, {"measurement": "viability, T/C", "setting": "[10]", "result": 80.3, "unit": "%"}, {"measurement": "viability, T/C", "setting": "[11]", "result": 60.1, "unit": "%"}, {"measurement": "viability, T/C", "setting": "[12]", "result": 30.2, "unit": "%"}, {"measurement": "viability, T/C", "setting": "second compound 1 µM, first compound 0.00316 µM", "result": 90.3, "unit": "%"}, {"measurement": "viability, T/C", "setting": "second compound 1 µM, first compound 0.01 µM", "result": 95.5, "unit": "%"}, {"measurement": "viability, T/C", "setting": "[13]", "result": 88.5, "unit": "%"}, {"measurement": "viability, T/C", "setting": "[14]", "result": 80.7, "unit": "%"}, {"measurement": "viability, T/C", "setting": "[15]", "result": 58.1, "unit": "%"}, {"measurement": "viability, T/C", "setting": "[16]", "result": 27.6, "unit": "%"}]}]}
